Laboratory results reported in US11390625B2, “Aryl-phosphorus-oxygen compound as EGFR kinase inhibitor” (Chia Tai Tianqing Pharmaceutical Group Co., Ltd., priority 2017, dated 2022).

Assays:
[1] = molecular target: EGFR (Δ19del/T790M/C797S) (Homo sapiens, UniProt P00533, C797S/T790M, form not given); assay: Enzyme activity experiment (1): EGFR (Δ19del/T790M/C797S) enzyme inhibition; format: biochemical; settings: read-out: EGFR (Δ19del/T790M/C797S) IC50
Protocol: 1) 10 μL of the compounds to be tested and reference compounds diluted to 10 mM were taken into an Echo LDV plate, which were diluted according to the compound profile with Echo.
1) 1×enzyme reaction buffer was prepared: 1× enzyme buffer, 5 mM MgCl2, 1 mM DTT (dithiothreitol), water.
2) A mixed solution of 10 nM enzyme (final concentration of 5 nM) and 2 μM substrate (final concentration of 1 μM) and a solution containing the substrate alone were prepared with the diluted enzyme reaction buffer.
3) 5 μL of the substrate was added into A1-H1, J24-P24 (the number of the well position), and 5 μL of the mixture of the enzyme and substrate was added into the remaining wells.
4) Centrifugation was performed at 1000 rpm at 23° C. for 30 s.
5) Incubation was performed at 23° C. for 15 min.
7) Centrifugation was performed at 1000 rpm at 23° C. for 30 s.
8) Incubation was performed at 23° C. for 60 min.
9) 10 μL of 250 nM TK Antibody-Crypate (a final concentration of 125 nM) and 1×D2 (a final concentration ½ time) prepared with Detection buffer were added.
10) Centrifugation was performed at 1000 rpm at 23° C. for 30 s.
11) Incubation was performed at 23° C. for 60 min.
12) The data was read with Envision, and the ratio was calculated to obtain the IC50 of the compound for inhibiting the enzyme activity.

[2] = test system: Ba/F3 (EGFR Δ19del/T790M/C797S) cells; assay: Anti-proliferation experiment on cells (2), Ba/F3 (EGFR Δ19del/T790M/C797S); format: cell-based; settings: for IC50: Ba/F3 EGFR, 72 h, Ba/F3 cells, 3 days, read-out: anti-proliferation effect on cells Ba/F3(Δ19del/T790M/C797S) IC50
Protocol: The compounds ware transferred to a 384-well plate, with 125 nL of compound per well. […] After 3 days, 25 μL of detection reagent was added. The plate was incubated at room temperature for 10 minutes and then read with Envision.

[3] = test system: pEGFR Ba/F3 (EGFR Δ19del/T790M/C797S) cells; assay: Cell phosphorylation inhibition experiment, pEGFR Ba/F3 (EGFR Δ19del/T790M/C797S); format: cell-based; settings: for IC50: Ba/F3 EGFR, Ba/F3 cells, EGF stimulated, read-out: Effect on cellular EGFR phosphorylation Ba/F3(Δ19del/T790M/C797S) IC50
Protocol: The test compounds and reference compounds were diluted with 100% DMSO to 10 mM or 1 mM, and then a gradient dilution was performed by using Echo, 150 nL per well, with a three-fold concentration gradient and a ten-point dose response curve. The final concentration of the compounds was 100 μM or 10 μM. The suspension cells was centrifuged at 1000 rp for 5 minutes, suspend in Hanks' balanced salt solution, and added to a 384-well plate containing the compounds at 10 L/120K/well (the cell density of 1.2×10^7), followed by centrifugation at 1200 rpm for 30 s and incubation at 37° C. for 30 min. 5 μL of EGF (which has been diluted with 0.1% BSA Hanks' balanced salt solution) was added to each well, in which the final concentration of EGF was 1 μM. The plate was centrifuged at 1200 rpm for 30 s and incubated at 37° C. for 20 min. 5 μL of 4× lysis buffer containing blocking solution was added to each well, and then the plate was centrifuged at 1200 rpm for 30 s, and incubated at 37° C. for 30 min.

[4] = test system: Ba/F3 (Δ19del/T790M/C797S) xenograft; assay: In vivo efficacy (1): Ba/F3 (Δ19del/T790M/C797S) subcutaneous xenograft (CDX) in BALB/c nude mice;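 also: female nude mice, dosing begun at mean tumor size near 80–120 mm^3, tumors measured by caliper twice weekly, volume in mm^3 computed as 0.5×long×short diameter squared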
Protocol: BALB/c nude mice, female, 6-8 weeks old, 18-20 g of body weight, were housed in SPF-grade environment, and each cage was individually ventilated (5 mice per cage). […] A total of 48 mice purchased from Beijing Weitonglihua company were used for the study. Each mouse was implanted with cells at the right flank, for tumor growth. The experiment was started when the average tumor volume reached approximately 80-120 mm^3. […] Tumor volume was measured twice a week with a two-dimensional caliper, measured in mm^3 and calculated by the following formula: V=0.5a×b^2, wherein a and b are the long and short diameters of the tumor, respectively. Antitumor efficacy was determined by dividing the average increase of the tumor volume of the animals treated with the compound by the average increase of the tumor volume of the untreated animals.

EGFR (Δ19del/T790M/C797S), sequence (P00533 25-1210 T790M/C797S limits assumed, form open): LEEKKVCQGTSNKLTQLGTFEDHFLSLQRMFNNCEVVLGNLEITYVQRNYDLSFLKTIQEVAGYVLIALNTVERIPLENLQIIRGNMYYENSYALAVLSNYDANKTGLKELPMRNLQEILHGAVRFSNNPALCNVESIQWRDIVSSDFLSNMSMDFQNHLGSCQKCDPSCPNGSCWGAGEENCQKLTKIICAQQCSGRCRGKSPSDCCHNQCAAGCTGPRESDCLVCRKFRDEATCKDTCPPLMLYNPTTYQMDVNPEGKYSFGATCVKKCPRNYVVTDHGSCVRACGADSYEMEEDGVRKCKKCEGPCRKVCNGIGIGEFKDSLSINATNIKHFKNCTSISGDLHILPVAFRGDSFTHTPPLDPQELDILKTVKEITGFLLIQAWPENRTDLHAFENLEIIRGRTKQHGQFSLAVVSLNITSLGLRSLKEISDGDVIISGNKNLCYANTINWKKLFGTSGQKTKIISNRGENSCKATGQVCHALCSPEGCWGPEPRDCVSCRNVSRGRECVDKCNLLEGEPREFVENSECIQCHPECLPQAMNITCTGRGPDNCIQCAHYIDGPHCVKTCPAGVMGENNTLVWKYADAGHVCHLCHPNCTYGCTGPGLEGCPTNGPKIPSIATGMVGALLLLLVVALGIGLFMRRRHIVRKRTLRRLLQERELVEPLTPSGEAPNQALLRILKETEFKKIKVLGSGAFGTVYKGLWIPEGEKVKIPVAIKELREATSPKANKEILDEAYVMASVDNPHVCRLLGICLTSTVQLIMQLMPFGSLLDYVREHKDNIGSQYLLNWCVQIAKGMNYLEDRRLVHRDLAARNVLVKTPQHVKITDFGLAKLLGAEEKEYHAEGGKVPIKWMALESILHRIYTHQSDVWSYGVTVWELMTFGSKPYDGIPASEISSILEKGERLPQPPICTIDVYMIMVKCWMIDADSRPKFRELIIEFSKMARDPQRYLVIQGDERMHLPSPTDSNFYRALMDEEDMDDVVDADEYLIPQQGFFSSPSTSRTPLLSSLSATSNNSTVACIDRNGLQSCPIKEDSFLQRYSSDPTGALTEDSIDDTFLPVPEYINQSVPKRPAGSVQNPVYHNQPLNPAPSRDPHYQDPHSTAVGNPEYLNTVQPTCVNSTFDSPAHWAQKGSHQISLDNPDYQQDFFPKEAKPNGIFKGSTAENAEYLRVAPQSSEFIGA

Compound	IC50 [2]	further results
COc1cc(N2CCC3(CC2)CN(C)C3)c(C)cc1Nc1ncc(C#N)c(Nc2ccc3ccccc3c2P(C)(C)=O)n1 [Compound 26]	764 nM	IC50 [1]: 0.679 nM
COc1cc(N2CCC3(CCN(C)CC3)CC2)c(Cl)cc1Nc1ncc(Cl)c(Nc2ccc3cccnc3c2P(C)(C)=O)n1 [Compound 10]	6030 nM	–
COc1cc(N2CCC3(CC2)CN(C)C3)c(C)cc1Nc1ncc(Cl)c(Nc2ccc3nccnc3c2P(C)(C)=O)n1 [Compound 8]	275 nM	IC50 [1]: 0.792 nM; IC50 [3]: 133 nM
COc1cc(N2CCC3(CCN(C)CC3)CC2)c(Cl)cc1Nc1ncc(Cl)c(Nc2ccc3sccc3c2P(C)(C)=O)n1 [Compound 1]	–	IC50 [1]: 2.64 nM
COc1cc(N2CCC(N3CCN(C)CC3)CC2)ccc1Nc1ncc(Cl)c(Nc2ccccc2P(C)(C)=O)n1 [Birgatinib, reference compound]	–	TGI (the tumor inhibition value) ([4]; 15 mg/kg oral daily, 13 consecutive days): 8.6%; Tumor volume Day 0 ([4]; 15 mg/kg/day oral, Day 0): 84 mm^3; Tumor volume Day 2 ([4]; 15 mg/kg/day oral, Day 2): 124 mm^3; Tumor volume Day 5 ([4]; 15 mg/kg/day oral, Day 5): 292 mm^3; Tumor volume Day 8 ([4]; 15 mg/kg/day oral, Day 8): 477 mm^3; Tumor volume Day 10 ([4]; 15 mg/kg/day oral, Day 10): 646 mm^3; Tumor volume Day 12 ([4]; 15 mg/kg/day oral, Day 12): 880 mm^3; Tumor volume Day 13 ([4]; 15 mg/kg/day oral, Day 13): 965 mm^3
COc1cc(N2CCC3(CCN(C)CC3)CC2)c(Cl)cc1Nc1ncc(Cl)c(Nc2ccc3c(c2P(C)(C)=O)C(=O)CC3)n1 [Compound 14]	351 nM	–
COc1cc(N2CCC3(CC2)CN(C)C3)c(C)cc1Nc1ncc(C2CC2)c(Nc2ccc3ccccc3c2P(C)(C)=O)n1 [Compound 25]	642 nM	IC50 [1]: 1.79 nM
COc1cc(N2CCC3(CC2)CN(C)C3)c(C)cc1Nc1ncc(Cl)c(Nc2ccc3c(c2P(C)(C)=O)CCC3)n1 [Compound 16]	211 nM	IC50 [1]: 0.491 nM
COc1ccc(OCCNCc2cnccn2)cc1Nc1ncc(Cl)c(Nc2ccc3ccccc3c2P(C)(C)=O)n1 [Compound 18]	1650 nM	IC50 [1]: 25.3 nM
COc1cc(N2CCC(N(C)C)CC2)c(C)cc1Nc1ncc(Br)c(Nc2ccc3nccnc3c2P(C)(C)=O)n1 [Compound 44]	–	IC50 [3]: 9 nM
COc1cc(N2CCC(N3CCN(C)CC3)CC2)c(C)cc1Nc1ncc(C)c(Nc2ccc3nccnc3c2P(C)(C)=O)n1 [Example 48]	152 nM	–
COc1cc(N2CCC3(CC2)CN(C)C3)c(C)cc1Nc1ncc(-c2nnc(C)o2)c(Nc2ccc3ccccc3c2P(C)(C)=O)n1 [Compound 27]	2710 nM	–
COc1cc(N2CCC3(CCN(C)CC3)CC2)c(C)cc1Nc1ncc(Br)c(Nc2ccc3nccnc3c2P(C)(C)=O)n1 [Example 57]	26.8 nM	–
COc1cc(N2CCC3(CC2)CN(CCN(C)C)C3)c(C)cc1Nc1ncc(Cl)c(Nc2ccc3ccccc3c2P(C)(C)=O)n1 [Compound 20]	214 nM	IC50 [1]: < 0.0508 nM
COc1cc(N2CCC(N3CCN(C)CC3)CC2)ccc1Nc1ncc(Br)c(Nc2ccc3c(c2P(C)(C)=O)CCC3)n1 [Compound 38]	371 nM	–
COc1cc(N2CCC3(CC2)CN(CCN(C)C)C3)c(C)cc1Nc1ncc(Cl)c(Nc2ccc3nccnc3c2P(C)(C)=O)n1 [Compound 39]	187 nM	IC50 [3]: 195 nM
CCc1cc(Nc2ncc(Br)c(Nc3ccc4nccnc4c3P(C)(C)=O)n2)c(OC)cc1N1CCC2(CCN(C)CC2)CC1 [Example 58]	18.6 nM	–
COc1cc(N2CCC(N3CCN(C)CC3)CC2)c(C)cc1Nc1ncc(Br)c(Nc2ccc3scnc3c2P(C)(C)=O)n1 [Example 51]	36 nM	–
COc1cc(N2CCN(C)CC2)c(C)cc1Nc1ncc(Br)c(Nc2ccc3nccnc3c2P(C)(C)=O)n1 [Example 45]	87 nM	IC50 [3]: 27 nM

Compound	IC50 [2]	further results
COc1cc(N2CCC3(CC2)CN(C(C)C)C3)c(C)cc1Nc1ncc(Br)c(Nc2ccc3ccccc3c2P(C)(C)=O)n1 [Compound 33]	162 nM	–
COc1cc(N2CCC(N3CCN(C)CC3)CC2)c(Cl)cc1Nc1ncc(Cl)c(Nc2ccc3ccccc3c2P(C)(C)=O)n1 [Compound 11]	180 nM	–
COc1cc(N2CCC3(CC2)CN(C)C3)c(C)cc1Nc1ncc(C(C)=O)c(Nc2ccc3ccccc3c2P(C)(C)=O)n1 [Compound 24]	4080 nM	–
CCc1cc(Nc2ncc(Br)c(Nc3ccc4ccccc4c3P(C)(C)=O)n2)c(OC)cc1N1CCC2(CC1)CN(C)C2 [Compound 32]	79 nM	IC50 [3]: 57 nM
COc1cc(N2CCC(N3CCN(C)CC3)CC2)ccc1Nc1ncc(Cl)c(Nc2ccc3cccnc3c2P(C)(C)=O)n1 [Compound 7]	–	IC50 [3]: 533 nM
COc1cc(N2CCC(N3CCN(C)CC3)CC2)ccc1Nc1ncc(Cl)c(Nc2ccc3c(c2P(C)(C)=O)CCC3)n1 [Compound 35]	533 nM	–
COc1cc(N2CCC(N3CCN(C)CC3)CC2)c(Cl)cc1Nc1ncc(Br)c(Nc2ccc3nccnc3c2P(C)(C)=O)n1 [Example 54]	39 nM	–
COc1cc(N2CCC(N3CCN(C)CC3)CC2)ccc1Nc1ncc(Cl)c(Nc2ccc3[nH]cnc3c2P(C)(C)=O)n1 [Comparative Example 1, reference compound]	> 5000 nM	inhibitory effect on Ba/F3 cells with three mutations (EGFR Δ19del/T790M/C797S) ([2]; in words): almost no inhibitory effect; IC50 [3]: 1010 nM; inhibitory effect on the phosphorylation of Ba/F3 (Δ19del/T790M/C797S) cells ([3]; in words): almost no inhibitory effect
COc1cc(N2CCC3(CC2)CN(CCO)C3)c(C)cc1Nc1ncc(Cl)c(Nc2ccc3ccccc3c2P(C)(C)=O)n1 [Compound 30]	290 nM	–
COc1ccc(OCCNS(C)(=O)=O)cc1Nc1ncc(Cl)c(Nc2ccc3ccccc3c2P(C)(C)=O)n1 [Compound 29]	1590 nM	IC50 [1]: 67.6 nM
COc1cc(N2CCC3(CC2)CN(C)C3)c(C)cc1Nc1ncc(Cl)c(Nc2ccc3c(ccn3C)c2P(C)(C)=O)n1 [Compound 15]	583 nM	–
COc1cc(N2CCC3(CC2)CN(C(C)C)C3)c(C)cc1Nc1ncc(Cl)c(Nc2ccc3sccc3c2P(C)(C)=O)n1 [Compound 31]	242 nM	–
COc1cc(N2CCC3(CC2)CN(C)C3)c(C)cc1Nc1ncc(OC(=O)N(C)C)c(Nc2ccc3ccccc3c2P(C)(C)=O)n1 [Compound 17]	4750 nM	IC50 [1]: 856 nM
COc1cc(N2CCC(N3CCN(C)CC3)CC2)ccc1Nc1ncc(Cl)c(Nc2ccc3cccnc3c2P(C)(C)=O)n1 [Compound 43]	496 nM	–
COc1cc(N2CCC3(CC2)CN(C)C3)c(C)cc1Nc1nc(Nc2ccc3ccccc3c2P(C)(C)=O)c2cc[nH]c2n1 [Compound 22]	249 nM	–
COc1ccc(OCCNCc2cccnc2)cc1Nc1ncc(Cl)c(Nc2ccc3ccccc3c2P(C)(C)=O)n1 [Compound 19]	1220 nM	IC50 [1]: 12.9 nM
COc1cc(N2CCC(N3CCN(C)CC3)CC2)ccc1Nc1ncc(Cl)c(Nc2ccc3scnc3c2P(C)(C)=O)n1 [Compound 42]	442 nM	–
COc1cc(N2CCC3(CC2)CN(C)C3)c(C)cc1Nc1ncc(Br)c(Nc2ccc3ccccc3c2P(C)(C)=O)n1 [Compound 23]	103 nM	IC50 [1]: 0.0517 nM; IC50 [3]: 34 nM
